Our source for the TGI values is PubChem BioAssay (NCI).

Assay in all cases: NCI tumour cell line growth inhibition, 48 h
Test [1] has as its system M19-MEL melanoma.
Test [2] relates to DMS 114 small cell lung.
Test [3] has as its system P388 leukemia.
For test [4], the system named is KM20L2 colon.
The test system of test [5] is HOP-18 NSCLC.
In test [6] the test system is SN12K1 renal.
The test system of test [7] is XF 498 CNS.
For test [8], the system named is P388/ADR leukemia.
Test [9] relates to RXF-631 renal.
Test [10] deals with LXFL 529 NSCLC.

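Compound exposure: 48 hours, 5 concentrations, 96-well plates. The concentration for full growth arrest is given as TGI.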

For the molecule `C(=C/c1nc2ccccc2o1)/c1ccc2c(c1)OCO2`, the TGI in test [1] was greater than 100 µM; in test [2] it was greater than 100 µM; in [3] it was greater than 35.8 µM; in [4], greater than 53 µM; in [5], 60.8 µM; in test [6], 42 µM. The TGI was 48.8 µM in test [7] and greater than 43.7 µM in test [8].

As for `CC1OC(=O)C(C(C)C)NC(=O)C(C(C)C)OC(=O)C(C(C)C)NC(=O)C(C)OC(=O)C(C(C)C)NC(=O)C(C(C)C)OC(=O)C(C(C)C)NC(=O)C(C)OC(=O)C(C(C)C)NC(=O)C(C(C)C)OC(=O)C(C(C)C)NC1=O` (configuration not stated), the TGI came to 6.28 µM in test [1]; 0.0191 µM in test [2]; 0.25 µM in [3]; 0.493 µM in test [4]; 0.0539 µM in [5]; 0.816 µM in test [6]. This molecule also gave a TGI in test [8] of 0.0325 µM.

As for `CCN(CC)CCO[Si](OCCN(CC)CC)(OCCN(CC)CC)OCCN(CC)CC`, the TGI in test [1], in [9], in test [2], in [4] and in [7] was greater than 100 µM each time.

Take `S=c1nc[nH]c2c1ncn2C1CCCO1` (configuration not stated): the TGI in test [2], in test [4], in test [5] and in test [10] was greater than 100 µM each time.

As to `CCOC(=O)C(C)N1C(=O)c2ccccc2S1(=O)=O` (configuration not stated), the TGI in test [1], in test [2], in [3], in test [5], in test [6] and in test [7] was greater than 100 µM throughout. In [8], this molecule gave a TGI greater than 100 µM.

Turning to `CCOC(=O)C1=C(C)N(C2OC(COC(=O)c3ccccc3)C(OC(=O)c3ccccc3)C2OC(=O)c2ccccc2)C(=S)NC1c1ccccc1` (configuration not stated), the TGI in test [1] was greater than 100 µM; in test [2], 97.2 µM; in [4] it was greater than 100 µM; in test [5] it was greater than 100 µM; in [10], greater than 100 µM.

Turning to `O=C(CCC1CCCCN1)Nc1ccc2c(c1)C(=O)c1ccc(NC(=O)CCN3CCCCC3)cc1C2=O` (configuration not stated), the TGI in test [1] turned out to be 5.71 µM; in [2] it was 2.97 µM; in test [4] it was 14.5 µM; in test [5], 9.77 µM; in test [10], 2.7 µM.

Take `CCOC(C)OC1CC(n2cc(C)c(=O)[nH]c2=O)OC1CO` (configuration not stated): the TGI in test [1], in [2], in test [4], in test [5], in [10] and in test [7] was greater than 100 µM throughout.

`CN/N=C(\C(=O)Nc1ccc(C)c(C)c1)C(C(=O)OC)c1nc2ccc([N+](=O)[O-])cc2[nH]c1=O` (configuration not stated): the TGI in [1], in test [2], in test [4], in [10] and in test [7] was greater than 100 µM in each case.
